The record followed here is patent publication US8779142B2, “Azabicyclo compound and salt thereof” (Taiho Pharmaceutical Co., Ltd., priority 2009, dated 2014).

The target in experiment [1] is human HSP90 alpha protein (HSP90 N-terminal protein, amino acids 2-236) (Homo sapiens (Human), UniProt P07900). Put plainly: Measurement of HSP90-binding activity (AlphaScreen competitive assay, biotin-labeled geldanamycin). Particulars: concentration inhibiting binding of biotin-labeled geldanamycin (40 nM) to purified HSP90 to 50% of control; read-out: HSP-binding activity IC50. In general terms: Alpha assays give light when donor and acceptor beads are brought close together.

The next experiment has as its system SK-BR-3 cells. Put plainly: Measurement of cell growth inhibition (crystal violet staining method). The experiment is classed as cell-based. Particulars: Homo sapiens.
Where [2] appears, read: breast cancer SK-BR-3 cells, 72 hr culture with test substance.

On to `Cc1cn(-c2ccc(C(N)=O)c(NCC(C)(C)O)c2)c2nccc(-c3cnc4ccccc4c3)c12` [Example 58, 2-(2-Hydroxy-2-methylpropylamino)-4-{3-methyl-4-(quinolin-3-yl)-1H-pyrrolo[2,3-b]pyridin-1-yl}benzamide], for which the IC50 in experiment [1] was determined as 460 nM; in the experiment with SK-BR-3 cells (setting [2]), 210 nM.

In the case of `CC(C)c1nn(-c2ccc(C(N)=O)c(NCCCN(C)C)c2)c2nccc(-c3cnc4ccccc4c3)c12` [Example 29, 2-{3-(Dimethylamino)propylamino}-4-{3-isopropyl-4-(quinolin-3-yl)-1H-pyrazolo[3,4-b]pyridin-1-yl}benzamide], the IC50 in experiment [1] was determined as 320 nM; with SK-BR-3 cells (setting [2]) it was 240 nM.

For `CC(C)Nc1cc(-n2nc(C(C)C)c3c(-n4cnc(-c5cn[nH]c5)c4)ccnc32)ccc1C(N)=O` [Example 143, 4-{4-(4-(1H-Pyrazol-4-yl)-1H-imidazol-1-yl)-3-isopropyl-1H-pyrazolo[3,4-b]pyridin-1-yl}-2-(isopropylamino)benzamide], the IC50 in experiment [1] turned out to be 170 nM; in the experiment on SK-BR-3 cells (setting [2]), 30 nM.

As to `CCNc1cc(C(N)=O)ccc1-n1nc(C(F)(F)F)c2c(-n3cnc(-c4cnn(CC)c4)c3)ccnc21` [Example 185, 4-{4-(4-(1-Ethyl-1H-pyrazol-4-yl)-1H-imidazol-1-yl)-3-(trifluoromethyl)-1H-pyrazolo[3,4-b]pyridin-1-yl}-3-(ethylamino)benzamide], the IC50 in experiment [1] turned out to be 190 nM; in the experiment with SK-BR-3 cells (setting [2]), 210 nM.

For `CCNc1cc(C(N)=O)ccc1-n1nc(C(C)C)c2c(-n3cnc(-c4cnn(C)c4)c3)ccnc21` [Example 121, 3-(Ethylamino)-4-{3-isopropyl-4-(4-(1-methyl-1H-pyrazol-4-yl)-1H-imidazol-1-yl)-1H-pyrazolo[3,4-b]pyridin-1-yl}benzamide], the IC50 turned out to be 180 nM in experiment [1] and 160 nM in the experiment with SK-BR-3 cells (setting [2]).

`Cc1cn(-c2ccc(C(N)=O)c(NCCCCO)c2)c2nccc(-c3cnc4ccccc4c3)c12` [Example 55, 2-(4-Hydroxybutylamino)-4-{3-methyl-4-(quinolin-3-yl)-1H-pyrrolo[2,3-b]pyridin-1-yl}benzamide]: the IC50 was determined as 2810 nM in experiment [1] and 920 nM with SK-BR-3 cells (setting [2]).

Turning to `CC(C)c1nn(-c2ccc(C(N)=O)c(N[C@H]3CC[C@H](O)CC3)c2)c2nccc(-c3cnc4[nH]ccc4c3)c12` [Example 13, 2-(Trans-4-hydroxycyclohexylamino)-4-{3-isopropyl-4-(1H-pyrrolo[2,3-b]pyridin-5-yl)-1H-pyrazolo[3,4-b]pyridin-1-yl}benzamide], the half-maximal inhibitory concentration (IC50) was determined as 430 nM in experiment [1] and 150 nM in the experiment on SK-BR-3 cells (setting [2]).

Regarding `CC(C)c1nn(-c2ccc(C(N)=O)cc2NCC(F)F)c2nccc(-n3cnc(-c4cnn(C)c4)c3)c12` [Example 123, 3-(2,2-Difluoroethylamino)4-{3-isopropyl-4-(4-(1-methyl-1H-pyrazol-4-yl)-1H-imidazol-1-yl)-1H-pyrazolo[3,4-b]pyridin-1-yl}benzamide], the values for the IC50 (in experiment [1]; in the experiment with SK-BR-3 cells (setting [2])) were 190 nM and 120 nM, respectively.

Consider `CCNc1cc(-n2nc(C(C)C)c3c(-n4cnc(-c5cn[nH]c5)c4)ccnc32)ccc1C(N)=O` [Example 144, 4-{4-(4-(1H-Pyrazol-4-yl)-1H-imidazol-1-yl)-3-isopropyl-1H-pyrazolo[3,4-b]pyridin-1-yl}-2-(ethylamino)benzamide], for which the IC50 came to 420 nM in experiment [1] and 110 nM with SK-BR-3 cells (setting [2]).

Take `CC(C)c1nn(-c2ccc(C(N)=O)c(NCC(F)F)c2)c2nccc(-n3cnc(-c4cnn(C)c4)c3)c12` [Example 113, 2-(2,2-Difluoroethylamino)-4-{3-isopropyl-4-(4-(1-methyl-1H-pyrazol-4-yl)-1H-imidazol-1-yl)-1H-pyrazolo[3,4-b]pyridin-1-yl}benzamide]: the IC50 in experiment [1] is 260 nM; in the experiment with SK-BR-3 cells (setting [2]) it was 70 nM.

As to `NC(=O)c1ccc(-n2nc(C(F)(F)F)c3c(-c4cnc5ccccc5c4)ccnc32)cc1N[C@H]1CC[C@H](O)CC1` [Example 1, 2-(Trans-4-hydroxycyclohexylamino)-4-{4-(quinolin-3-yl)-3-(trifluoromethyl)-1H-pyrazolo[3,4-b]pyridin-1-yl}benzamide], the figures for the IC50 (in experiment [1]; in the experiment with SK-BR-3 cells (setting [2])) were 120 nM and 20 nM, respectively.

With `Cc1c(-n2nc(C(C)C)c3c(-n4cnc(-c5cnn(C)c5)c4)ccnc32)ccc(C(N)=O)c1F` [Example 130, 2-Fluoro-4-{3-isopropyl-4-(4-(1-methyl-1H-pyrazol-4-yl)-1H-imidazol-1-yl)-1H-pyrazolo[3,4-b]pyridin-1-yl}-3-methylbenzamide], the 50% inhibitory concentration (IC50) came out at 690 nM in experiment [1] and 1890 nM with SK-BR-3 cells (setting [2]).

Consider `NC(=O)c1ccc(-n2nc(C(F)(F)F)c3c(-n4cnc(-c5cccnc5)c4)ccnc32)c(NC2CCC2)c1` [Example 182, 3-(Cyclobutylamino)-4-{4-(4-(pyridin-3-yl)-1H-imidazol-1-yl)-3-(trifluoromethyl)-1H-pyrazolo[3,4-b]pyridin-1-yl}benzamide], for which the IC50 in experiment [1] came to 200 nM; with SK-BR-3 cells (setting [2]), 130 nM.

Take `Cc1cc(C(N)=O)ncc1-n1nc(C(C)C)c2c(-n3cnc(-c4cnn(C)c4)c3)ccnc21` [Example 118, 5-{3-Isopropyl-4-(4-(1-methyl-1H-pyrazol-4-yl)-1H-imidazol-1-yl)-1H-pyrazolo[3,4-b]pyridin-1-yl}-4-methylpicolinamide]: the IC50 is 210 nM in experiment [1] and 550 nM with SK-BR-3 cells (setting [2]).

With `CC(C)Nc1cc(C(N)=O)ccc1-n1nc(C(F)(F)F)c2c(-n3cnc(-c4cccnc4)c3)ccnc21` [Example 181, 3-(Isopropylamino)-4-{4-(4-(pyridin-3-yl)-1H-imidazol-1-yl)-3-(trifluoromethyl)-1H-pyrazolo[3,4-b]pyridin-1-yl}benzamide], the 50% inhibitory concentration (IC50) in experiment [1] stood at 140 nM; with SK-BR-3 cells (setting [2]), 120 nM.

For the compound `CC(C)c1nn(-c2ccc(C(N)=O)c(Nc3ccc(N4CCOCC4)cc3)c2)c2nccc(-c3cnc4ccccc4c3)c12` [Example 33, 4-{3-Isopropyl-4-(quinolin-3-yl)-1H-pyrazolo[3,4-b]pyridin-1-yl}-2-(4-morpholinophenylamino)benzamide], the figures for the half-maximal inhibitory concentration (IC50) (in experiment [1]; in the experiment with SK-BR-3 cells (setting [2])) were 1140 nM and 70 nM, respectively.

For the compound `CCc1cn(-c2ccc(C(N)=O)c(N[C@H]3CC[C@H](O)CC3)c2)c2nccc(-c3cnc4ccccc4c3)c12` [Example 41, 4-{3-Ethyl-4-(quinolin-3-yl)-1H-pyrrolo[2,3-b]pyridin-1-yl}-2-(trans-4-hydroxycyclohexylamino)benzamide], the IC50 in experiment [1] was 120 nM; in the experiment with SK-BR-3 cells (setting [2]), 30 nM.

In the case of `CCNc1cc(-n2nc(C(C)C)c3c(-n4cnc(-c5cnn(CC)c5)c4)ccnc32)ccc1C(N)=O` [Example 146, 4-{4-(4-(1-Ethyl-1H-pyrazol-4-yl)-1H-imidazol-1-yl)-3-isopropyl-1H-pyrazolo[3,4-b]pyridin-1-yl}-2-(ethylamino)benzamide], the IC50 in experiment [1] is 770 nM; in the experiment on SK-BR-3 cells (setting [2]), 210 nM.

Take `Cc1c(C(N)=O)ccc(-n2nc(C(C)C)c3c(-n4cnc(-c5cnn(C)c5)c4)ccnc32)c1C` [Example 129, 4-{3-Isopropyl-4-(4-(1-methyl-1H-pyrazol-4-yl)-1H-imidazol-1-yl)-1H-pyrazolo[3,4-b]pyridin-1-yl}-2,3-dimethylbenzamide]: the IC50 is 290 nM in experiment [1] and 1130 nM in the experiment on SK-BR-3 cells (setting [2]).

`CC(C)c1nn(-c2ccc(C(N)=O)c(N[C@H]3CC[C@H](O)CC3)c2)c2nccc(-n3ccnc3)c12` [Example 36, 4-{4-(1H-Imidazol-1-yl)-3-isopropyl-1H-pyrazolo[3,4-b]pyridin-1-yl}-2-(trans-4-hydroxycyclohexylamino)benzamide]: the IC50 in experiment [1] came out at 1880 nM; in the experiment with SK-BR-3 cells (setting [2]) it was 3210 nM.

With `CC(C)Nc1cc(C(N)=O)ccc1-n1nc(C(F)(F)F)c2c(-n3cnc(-c4cnn(C)c4)c3)ccnc21` [Example 164, 3-(Isopropylamino)-4-{4-(4-(1-methyl-1H-pyrazol-4-yl)-1H-imidazol-1-yl)-3-(trifluoromethyl)-1H-pyrazolo[3,4-b]pyridin-1-yl}benzamide], the values for the half-inhibitory concentration (IC50) (in experiment [1]; with SK-BR-3 cells (setting [2])) were 110 nM and 70 nM, respectively.

With `C=Cc1cn(-c2ccc(C(N)=O)c(N[C@H]3CC[C@H](O)CC3)c2)c2nccc(-c3cnc4ccccc4c3)c12` [Example 46, 2-(Trans-4-hydroxycyclohexylamino)-4-{3-vinyl-4-(quinolin-3-yl)-1H-pyrrolo[2,3-b]pyridin-1-yl}benzamide], the IC50 in experiment [1] stood at 150 nM; in the experiment with SK-BR-3 cells (setting [2]) it was 20 nM.

Consider `CCNc1c(C(N)=O)ccc(-n2nc(C(C)C)c3c(-n4cnc(-c5cnn(C)c5)c4)ccnc32)c1C` [Example 132, 2-(Ethylamino)-4-{3-isopropyl-4-(4-(1-methyl-1H-pyrazol-4-yl)-1H-imidazol-1-yl)-1H-pyrazolo[3,4-b]pyridin-1-yl}-3-methylbenzamide], for which the IC50 in experiment [1] was found to be 120 nM; with SK-BR-3 cells (setting [2]) it was 100 nM.

With `CCc1cn(-c2ccc(C(N)=O)c(N[C@H]3CC[C@H](OC(=O)CN)CC3)c2)c2nccc(-c3cnc4ccccc4c3)c12` [Example 42, Trans-4-{2-carbamoyl-5-{3-ethyl-4-(quinolin-3-yl)-1H-pyrrolo[2,3-b]pyridin-1-yl}phenylamino}cyclohexyl-2-aminoacetate dimethanesulfonate], the IC50 in experiment [1] amounted to 190 nM; in the experiment with SK-BR-3 cells (SK-BR-3, 72 h), 30 nM.

In the case of `CC(C)c1nn(-c2ccc(C(N)=O)c(NC3CCC(O)CC3)c2)c2nccc(-n3cnc(-n4ccnc4)c3)c12` (stereo not shown) [Example 92, 4-{4-(1′H-1,4′-Biimidazol-1′-yl)-3-isopropyl-1H-pyrazolo[3,4-b]pyridin-1-yl}-2-(4-hydroxycyclohexylamino)benzamide], the values for the IC50 (in experiment [1]; in the experiment with SK-BR-3 cells (setting [2])) were 130 nM and 70 nM, respectively.

Consider `CC(C)c1nn(-c2ccc(C(N)=O)c(Nc3ccc(CN4CCCC4)cc3)c2)c2nccc(-c3cnc4ccccc4c3)c12` [Example 35, 4-{3-Isopropyl-4-(quinolin-3-yl)-1H-pyrazolo[3,4-b]pyridin-1-yl}-2-{4-(pyrrolidin-1-ylmethyl)phenylamino}benzamide], for which the values for the IC50 (in experiment [1]; in the experiment with SK-BR-3 cells (setting [2])) were 1500 nM and 280 nM, respectively.

The IC50 is the concentration at which inhibition is half-maximal.
